US8987287B2, “Spirocyclic morphinans and their use” (Purdue Pharma L.P., priority 2012, dated 2015)

Assays:
[1] = molecular target: T1, δ opioid receptor (Homo sapiens (Human), UniProt P41143); assay: δ-opioid receptor radioligand ([3H]-Naltrindole) dose-displacement binding assay; conditions: binding affinity
Description: δ-Opioid Receptor Binding Assay Procedures: δ-Opioid Receptor Binding Assay Procedures were conducted as follows. Radioligand dose-displacement assays used 0.3 nM [^3H]-Naltrindole (Perkin Elmer, Shelton, Conn.; 33.0 Ci/mmole) with 5 μg membrane protein (Perkin Elmer, Shelton, Conn.) in a final volume of 500 μl binding buffer (5 mM MgCl2, 5% DMSO, 50 mM Trizma base, pH 7.4). Non-specific binding was determined in the presence of 25 μM unlabeled naloxone. All reactions were performed in 96-deep well polypropylene plates for 1 hour at a temperature of about 25° C. Binding reactions were terminated by rapid filtration onto 96-well Unifilter GF/C filter plates (Perkin Elmer, Shelton, Conn.) presoaked in 0.5% polyethylenimine (Sigma). Harvesting was performed using a 96-well tissue harvester (Perkin Elmer, Shelton, Conn.) followed by five filtration washes with 500 μl ice-cold binding buffer. Filter plates were subsequently dried at 50° C. for 1-2 hours. Fifty μl/well scintillation cocktail (Perkin Elmer, Shelton, Conn.) was added and plates were counted in a Packard Top-Count for 1 min/well.
In TABLE 1, binding affinity of certain Compounds of the Invention to the μ-, δ- and κ-opioid receptors was determined as described above.

[2] = molecular target: κ opioid receptor (Homo sapiens (Human), UniProt P41145); assay: κ-opioid receptor [35S]GTPγS functional assay, HEK-293 or CHO cells; type: biochemical; conditions: for Emax: relative to U69,593, HEK-293 or CHO cells
Description: (§1) κ-Opioid Receptor Functional Assay Procedures: Functional [^35S]GTPγS binding assays were conducted as follows. κ opioid receptor membrane solution was prepared by sequentially adding final concentrations of 0.026 μg/μl κ membrane protein (in-house), 10 μg/mL saponin, 3 μM GDP and 0.20 nM [^35S]GTPγS to binding buffer (100 mM NaCl, 10 mM MgCl2, 20 mM HEPES, pH 7.4) on ice. The prepared membrane solution (190 μl/well) was transferred to 96-shallow well polypropylene plates containing 10 μl of 20× concentrated stock solutions of agonist prepared in DMSO. Plates were incubated for 30 min at a temperature of about 25° C. with shaking. Reactions were terminated by rapid filtration onto 96-well Unifilter GF/B filter plates (Perkin Elmer, Shelton, Conn.) using a 96-well tissue harvester (Packard) and followed by three filtration washes with 200 μl ice-cold binding buffer (10 mM NaH2PO4, 10 mM Na2HPO4, pH 7.4). Filter plates were subsequently dried at 50° C. for 2-3 hours. Fifty μl/well scintillation cocktail (Perkin Elmer, Shelton, Conn.) was added and plates were counted in a Packard Top-Count for 1 min/well.
κ-Opioid Receptor Functional Data: κ GTP EC50 is the concentration of a compound providing 50% of the maximal response for the compound at a κ receptor.
κ GTP Emax (%) is the maximal effect elicited by a compound relative to the effect elicited by U69,593.
(§2) In TABLE 2, activity response of certain Compounds of the Invention to the μ-, δ- and κ-opioid receptors was determined as described above for functional assays using HEK-293 or CHO cells.

[3] = molecular target: T1, δ opioid receptor; assay: δ-opioid receptor [35S]GTPγS functional assay, HEK-293 or CHO cells; type: biochemical; conditions: for Emax: relative to met-enkephalin, HEK-293 or CHO cells
Description: as §1, with “δ-Opioid” for “κ-Opioid”, “δ” for “κ”, “(Perkin Elmer, Shelton, Conn.),” for “(in-house),”, “1-2” for “2-3”, “Top-count” for “Top-Count”
δ-Opioid Receptor Functional Data: δ GTP EC50 is the concentration of a compound providing 50% of the maximal response for the compound at a δ receptor.
δ GTP Emax (%) is the maximal effect elicited by a compound relative to the effect elicited by met-enkephalin.
as §2

T1 sequence (P41143 whole entry, looked up): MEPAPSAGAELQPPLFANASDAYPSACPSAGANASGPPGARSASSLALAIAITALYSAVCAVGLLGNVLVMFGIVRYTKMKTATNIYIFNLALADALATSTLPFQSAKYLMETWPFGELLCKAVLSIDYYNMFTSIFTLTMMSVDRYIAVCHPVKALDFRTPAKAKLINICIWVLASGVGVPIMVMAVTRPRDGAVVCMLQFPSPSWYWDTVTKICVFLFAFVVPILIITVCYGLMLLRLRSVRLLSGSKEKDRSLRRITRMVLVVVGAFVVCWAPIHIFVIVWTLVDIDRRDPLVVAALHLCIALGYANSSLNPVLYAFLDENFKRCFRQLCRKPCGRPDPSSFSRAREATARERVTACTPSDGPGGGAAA

Molecule `O=C1NC(=O)[C@@]2(CC[C@@]3(O)[C@H]4Cc5ccc(O)cc5[C@@]3(CCN4CC3CC3)C2)N1` [Compound 3, (4bR,4′S,8aS,9R)-11-(cyclopropylmethyl)-3,8a-dihydroxy-5,7,8,8a,9,10-hexahydrospiro[9,4b-(epiminoethano)phenanthrene-6,4′-imidazolidine]-2′,5′-dione] has a Ki [1] of 177 ± 36.7 nM, an EC50 [2] of 54.8 ± 12.6 nM and an Emax [2] of 80.2 ± 3.32%. It also gave an EC50 [3] of 34.8 ± 7.78 nM and an Emax [3] of 42.5 ± 2.84%.
`O=C1NC[C@@]2(CC[C@@]3(O)[C@H]4Cc5ccc(O)cc5[C@@]3(CCN4CC3CC3)C2)N1` [Compound 5, (4bR,4′S,8aS,9R)-11-(cyclopropylmethyl)-3,8a-dihydroxy-5,7,8,8a,9,10-hexahydrospiro[9,4b-(epiminoethano)phenanthrene-6,4′-imidazolidin]-2′-one] gave a Ki [1] of 272 ± 25.3 nM, an EC50 [2] of 67.2 ± 8.88 nM and an Emax [2] of 67.33 ± 0.33%. It also gave an EC50 [3] of 37 ± 15 nM and an Emax [3] of 34.3 ± 2.91%.
